Test results: article PMC11396667, “Design, Synthesis, and Anticancer and Antibacterial Activities of Quinoline-5-Sulfonamides” (Molecules, 2024)

Experiments:
[1] = test system: MDA-MB-231 (human breast adenocarcinoma) cells; assay: WST-1 cell viability assay, MDA-MB-231; type: cell-based; details: WST-1, 72 h exposure, ± SD, n = 6
Description: (§1) The synthesized compounds were tested using three cancer cell lines—human amelanotic melanoma (C-32), human breast adenocarcinoma (MDA-MB-231), and human lung adenocarcinoma (A549)—and, for comparison, normal human dermal fibroblasts (HFF-1). The WST-1 (water-soluble tetrazole salt) assay was used to evaluate the effect of the synthesized compounds on the viability of cultured cells.
(§2) Compounds were evaluated for their antiproliferative activity using three cultured cell lines: C-32 (human amelanotic melanoma, ATCC, Manassas, VA, USA), A549 (human lung adenocarcinoma, ATCC, Manassas, VA, USA), MDA-MB-231 (human breast adenocarcinoma derived from metastatic site: pleural effusion, ATCC, Manassas, VA, USA), together with HFF-1 (normal human dermal fibroblasts, ATCC, Manassas, VA, USA). The cultured cells were kept at 37 °C and 5% CO2.
(§3) Cells were seeded in 96-well plates at 5000/well in 100 μL of medium. After 24 h of incubation, the medium was replaced with a new one with the addition of the test substance. After 72 h, the following tests were performed: with crystal violet (determination of the number of adherent cells in the culture), the WST-1 test (determination of the relative number of living cells and their metabolic activity), and the LDH test (determination of the relative number of dead cells in cultures—cytotoxicity of the tested substance).
(§4) WST-1 test: The WST-1 test (Roche Diagnostics, Mannheim, Germany) allows one to determine the relative number of cells in cultures. Absorbance is directly proportional to the number of cells and their metabolic activity. The absorbance measurement is performed at λ = 450 nm (reference wave 600 nm).

[2] = test system: C-32 (human amelanotic melanoma) cells; assay: WST-1 cell viability assay, C-32; type: cell-based; details: WST-1, 72 h exposure, ± SD, n = 6
Description: as §1, §2, §3, §4

[3] = test system: A549 (human lung adenocarcinoma) cells; assay: WST-1 cell viability assay, A549; type: cell-based; details: WST-1, 72 h exposure, ± SD, n = 6
Description: as §1, §2, §3, §4

[4] = test system: HFF-1 (normal human dermal fibroblasts); assay: WST-1 cell viability assay, normal HFF-1; type: cell-based; details: ± SD, n = 6
Description: as §1, §2, §3, §4

[5] = test system: S. aureus ATCC 29213; assay: MTT assay of bacterial respiratory activity; type: cell-based, Staphylococcus aureus; details: S. aureus ATCC 29213
Excerpt: The MTT assay can be used to assess cell growth by measuring respiration. Bacterial cell respiratory activity (which is ultimately reflected in their viability) of less than 70% after exposure to the MIC values for each test compound is considered as a positive result for this test. This low level of cellular oxidative metabolism indicates inhibition of cell growth by inhibition of respiration. The lowest multiples of the MIC values by which inhibition of S. aureus ATCC 29213 viability [%] greater than 70% was achieved are shown in Table 4. […] Therefore, the antibacterial activity of the discussed compounds cannot be explained solely on the basis of respiration inhibition, so it is very difficult to draw a conclusion regarding the actual mechanism of action, since 8-HQs are multi-target agents, i.e., they affect several different targets at once (as discussed in the section dedicated to anticancer activity), which subsequently leads to the death of the treated resistant microorganisms.
Compounds were prepared as previously stated and diluted in CaMH broth for S. aureus to achieve the desired final concentrations. S. aureus bacterial suspension in sterile distilled water at 0.5 McFarland was diluted 1:3. Inocula were added to each well by multi-inoculator. Diluted mycobacteria in broth free from inhibiting compounds were used as the growth control. All compounds were prepared in duplicate. Plates were incubated at 37 °C for 24 h for S. aureus. After the incubation period, 10% well volume of MTT (3-(4,5-dimethylthiazol-2-yl)-2,5-diphenyltetrazolium bromide) reagent (Sigma) was mixed into each well and incubated at 37 °C 1 h for S. aureus. Then, 100 µL of 17% sodium dodecyl sulphate in 40% dimethylformamide was added to each well. The plates were read at 570 nm. The absorbance readings from the cells grown in the presence of the tested compounds were compared with uninhibited cell growth to determine the relative percent inhibition. The percent inhibition was determined through MTT assay. The percent viability is calculated through the comparison of a measured value and that of the uninhibited control: % viability = OD570E/OD570P × 100, where OD570E is the reading from the compound-exposed cells, while OD570P is the reading from the uninhibited cells (positive control). Cytotoxic potential is determined by a percent viability of <70% [81, 82].

C#CCNS(=O)(=O)c1ccc(OC)c2ncccc12 [6a, 8-Methoxy-N-(prop-2-yn-1-yl)quinoline-5-sulfonamide]
melting point: 161 to 163 °C
IC50 ([1]; Homo sapiens, MDA-MB-231): > 100 µM
IC50 ([2]; Homo sapiens): > 100 µM
IC50 ([3]; Homo sapiens, A549): > 100 µM

C#CC(C)(C)NS(=O)(=O)c1ccc(OC)c2ncccc12 [6b, 8-Methoxy-N-(1,1-dimethyloprop-2-yn-1-yl)quinoline-5-sulfonamide]
melting point: 217 to 219 °C
IC50 ([1]; Homo sapiens, MDA-MB-231): > 100 µM
IC50 ([2]; Homo sapiens): 40.6 ± 4.9 µM
IC50 ([3]; Homo sapiens, A549): > 100 µM

C#CCN(C)S(=O)(=O)c1ccc(OC)c2ncccc12 [6c, 8-Methoxy-N-methyl-N-(prop-2-yn-1-yl)quinoline-5-sulfonamide]
melting point: 112 to 114 °C
IC50 ([1]; Homo sapiens, MDA-MB-231): > 100 µM
IC50 ([2]; Homo sapiens): 70.1 ± 8.4 µM
IC50 ([3]; Homo sapiens, A549): > 100 µM

C#CCOc1ccc(NS(=O)(=O)c2ccc(OC)c3ncccc23)cc1 [6d, 8-Methoxy-N-[4-(prop-2-yn-1-yloxy)phenyl]quinoline-5-sulfonamide]
melting point: 217 to 219 °C
IC50 ([1]; Homo sapiens, MDA-MB-231): > 100 µM
IC50 ([2]; Homo sapiens): 86.4 ± 3.9 µM
IC50 ([3]; Homo sapiens, A549): > 100 µM

C#CCOc1cccc(NS(=O)(=O)c2ccc(OC)c3ncccc23)c1 [6e, 8-Methoxy-N-[3-(prop-2-yn-1-yloxy)phenyl]quinoline-5-sulfonamide]
melting point: 190 to 192 °C
IC50 ([1]; Homo sapiens, MDA-MB-231): > 100 µM
IC50 ([2]; Homo sapiens): 32.2 ± 4.8 µM
IC50 ([3]; Homo sapiens, A549): > 100 µM

C#CCOc1ccccc1NS(=O)(=O)c1ccc(OC)c2ncccc12 [6f, 8-Methoxy-N-[2-(prop-2-yn-1-yloxy)phenyl]quinoline-5-sulfonamide]
melting point: 187 to 189 °C
IC50 ([1]; Homo sapiens, MDA-MB-231): > 100 µM
IC50 ([2]; Homo sapiens): 27.7 ± 2.2 µM
IC50 ([3]; Homo sapiens, A549): > 100 µM

C=CCn1cc(CNS(=O)(=O)c2ccc(OC)c3ncccc23)nn1 [7a, N-[(1-Allyl-1H-1,2,3-triazol-4-yl)methyl]-8-methoxyquinoline-5-sulfonamide]
melting point: 159 to 161 °C
IC50 ([1]; Homo sapiens, MDA-MB-231): > 100 µM
IC50 ([2]; Homo sapiens): > 100 µM
IC50 ([3]; Homo sapiens, A549): > 100 µM

COc1ccc(S(=O)(=O)NCc2cn(Cc3ccccc3)nn2)c2cccnc12 [7b, N-[(1-Benzyl-1H-1,2,3-triazol-4-yl)methyl]-8-methoxyquinoline-5-sulfonamide]
melting point: 170 to 172 °C
IC50 ([1]; Homo sapiens, MDA-MB-231): > 100 µM
IC50 ([2]; Homo sapiens): > 100 µM
IC50 ([3]; Homo sapiens, A549): > 100 µM

COc1ccc(S(=O)(=O)NCc2cn(Cc3ccc(F)cc3)nn2)c2cccnc12 [7c, N-{[1-(4-Fluorobenzyl)-1H-1,2,3-triazol-4-yl]methyl}-8-methoxyquinoline-5-sulfonamide]
melting point: 194 to 196 °C
IC50 ([1]; Homo sapiens, MDA-MB-231): > 100 µM
IC50 ([2]; Homo sapiens): 89 ± 3.5 µM
IC50 ([3]; Homo sapiens, A549): > 100 µM

COc1ccc(S(=O)(=O)NCc2cn(-c3ccc(Cl)cc3)nn2)c2cccnc12 [7d, N-{[1-(4-Chlorophenyl)-1H-1,2,3-triazol-4-yl]methyl}-8-methoxyquinoline-5-sulfonamide]
melting point: 224 to 226 °C
IC50 ([1]; Homo sapiens, MDA-MB-231): > 100 µM
IC50 ([2]; Homo sapiens): > 100 µM
IC50 ([3]; Homo sapiens, A549): > 100 µM

COc1ccc(S(=O)(=O)NCc2cn(CSc3ccccc3)nn2)c2cccnc12 [7e, N-({1-[(Phenylthio)methyl]-1H-1,2,3-triazol-4-yl}methyl)-8-methoxyquinoline-5-sulfonamide]
melting point: 205 to 207 °C
IC50 ([1]; Homo sapiens, MDA-MB-231): 72.2 ± 3.6 µM
IC50 ([2]; Homo sapiens): > 100 µM
IC50 ([3]; Homo sapiens, A549): > 100 µM

COc1ccc(S(=O)(=O)NC(C)(C)c2cn(Cc3ccccc3)nn2)c2cccnc12 [7f, N-[2-(1-Benzyl-1H-1,2,3-triazol-4-yl)propan-2-yl]-8-methoxyquinoline-5-sulfonamide]
melting point: 153 to 155 °C
IC50 ([1]; Homo sapiens, MDA-MB-231): > 100 µM
IC50 ([2]; Homo sapiens): > 100 µM
IC50 ([3]; Homo sapiens, A549): > 100 µM

COc1ccc(S(=O)(=O)N(C)Cc2cn(Cc3ccccc3)nn2)c2cccnc12 [7g, N-Methyl-N-[(1-benzyl-1H-1,2,3-triazol-4-yl)methyl]-8-methoxyquinoline-5-sulfonamide]
melting point: 214 to 216 °C
IC50 ([1]; Homo sapiens, MDA-MB-231): > 100 µM
IC50 ([2]; Homo sapiens): 42.6 ± 3.4 µM
IC50 ([3]; Homo sapiens, A549): > 100 µM

COc1ccc(S(=O)(=O)Nc2ccc(OCc3cn(Cc4ccccc4)nn3)cc2)c2cccnc12 [7h, N-{4-[(1-Benzyl-1H-1,2,3-triazol-4-yl)methoxy]phenyl}-8-methoxyquinoline-5-sulfonamide]
melting point: 139 to 141 °C
IC50 ([1]; Homo sapiens, MDA-MB-231): > 100 µM
IC50 ([2]; Homo sapiens): > 100 µM
IC50 ([3]; Homo sapiens, A549): > 100 µM

N.N.[Cl][Pt][Cl] [CPT, cisplatin, reference compound]
IC50 [1]: 10.3 ± 0.7 µM
IC50 [2]: 10.6 ± 0.5 µM
IC50 ([4]; WST-1, 72 h exposure): 26 ± 2 µM
IC50 [3]: 17.3 ± 1.3 µM

O=C(O)c1cn(C2CC2)c2cc(N3CCNCC3)c(F)cc2c1=O [CPX, ciprofloxacin, reference compound]
Conc.: lowest multiple of MIC with at least 70% inhibition of respiratory activity [5]: 32 × MIC

COc1cccc2c1C(=O)c1c(O)c3c(c(O)c1C2=O)C[C@@](O)(C(=O)CO)C[C@@H]3O[C@H]1C[C@H](N)[C@H](O)[C@H](C)O1 [DOX, doxorubicin, reference compound]
IC50 ([1]; Homo sapiens, MDA-MB-231): 0.6 ± 0.1 µM
IC50 ([2]; Homo sapiens): 0.3 ± 0.02 µM
IC50 ([4]; HFF-1, WST-1, 72 h exposure): 1.4 ± 0.1 µM
IC50 ([3]; Homo sapiens, A549): 1 ± 0.1 µM
